Active and inactive are the calls of the source.
Assays:
[1] = biological target: T1, Heat shock factor protein 1 (Mus musculus, UniProt P38532); assay: enhancement of HSF1-driven luciferase signal – cell-based, NIH3T3, luminescence, dose retest, confirmation (AID 435004); type: functional;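 also: stress induced by proteasome inhibitor MG132 added 30 min after compound; luciferase reporter driven by HSF1 response element in NIH3T3 cells; actives raise luminescence as potentiators of the MG132 stress response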
T1 sequence (P38532 whole entry): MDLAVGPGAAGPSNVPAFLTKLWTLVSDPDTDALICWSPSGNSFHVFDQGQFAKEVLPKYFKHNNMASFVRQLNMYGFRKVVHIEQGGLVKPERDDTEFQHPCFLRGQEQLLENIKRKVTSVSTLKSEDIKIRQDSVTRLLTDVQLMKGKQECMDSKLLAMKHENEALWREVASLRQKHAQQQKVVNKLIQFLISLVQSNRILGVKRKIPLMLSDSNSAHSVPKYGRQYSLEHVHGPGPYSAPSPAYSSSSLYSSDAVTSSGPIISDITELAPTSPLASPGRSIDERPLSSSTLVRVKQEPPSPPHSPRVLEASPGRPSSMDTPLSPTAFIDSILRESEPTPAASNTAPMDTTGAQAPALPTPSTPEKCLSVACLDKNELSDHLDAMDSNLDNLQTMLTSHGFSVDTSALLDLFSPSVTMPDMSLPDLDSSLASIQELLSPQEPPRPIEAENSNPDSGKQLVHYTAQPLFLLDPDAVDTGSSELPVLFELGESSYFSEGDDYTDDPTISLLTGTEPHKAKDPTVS

[2] = luciferase reporter signal suppression in cells – H4 neuroglioma cells, luminescence, dose response (AID 1990); type: functional, cell-based
[3] = Luminescence Cell-Based Dose Response HTS to Identify Inhibitors of 5'UTR Stem-Loop Driven Prion Protein mRNA Translation in H4 Neuroglioblastoma Cells. [Related pubchem assays: 1827 (Project Summary), 1813 (Primary HTS)]; type: functional
[4] = alpha-synuclein stem-loop luciferase translation blockers – H4 neuroglioma cells, luminescence, confirmation (AID 1988); type: functional, cell-based
[5] = biological target: T1, Heat shock factor protein 1; assay: decrease of HSF1-responsive luciferase luminescence – cell-based, NIH3T3, dose retest, confirmation (AID 2382); type: functional;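 also: NIH3T3 fibroblasts with HSF1-driven luciferase reporter stressed by proteasome inhibitor MG132; luminescence from HSF1-driven luciferase expression after 8 hours of MG132 stress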
Cytochrome P450 2C19 = Cytochrome P450 2C19 (Homo sapiens, UniProt P33261); assay: Cytochrome panel assay with activity outcomes. Panel member name: p450-cyp2c19 Compounds with AC50 equal or less than 10 uM are considered active; type: functional; settings: read-out: AC50
[6] = Trypanosoma cruzi growth suppression in host cells – NIH3T3 host cells, beta-gal luminescence, confirmation (AID 2044); type: functional, cell-based;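 also: intracellular parasites grown in NIH/3T3 mouse fibroblasts as host cells; luminescent beta-galactosidase reporter signal from transgenic T. cruzi replicating inside host cells; inhibitors lower the luminescence signal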
[7] = NIH3T3 cell viability loss – ATP luminescence, mouse fibroblasts, counter-screen, dose response (AID 2010); type: functional, cell-based;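 also: cells exposed to compound for about 90 hours before reading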
[8] = test system: Streptococcus sp. 'group A'; assay: Streptococcus pyogenes SK(-)GAS viability under kanamycin – luminescence, BacTiterGlo, confirmation, counter-screen for streptokinase expression inhibitor project, dose response (AID 1900); type: functional, organism-based
Streptococcus = assay: GAS UMAA2166 growth inhibition – luminescence, BacTiterGlo, counter-screen for streptokinase expression inhibitor project, dose response (AID 1915); type: functional, organism-based;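 also: potency for reduction of bacterial viability or growth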

Cytochrome P450 2C19, sequence (P33261 whole entry): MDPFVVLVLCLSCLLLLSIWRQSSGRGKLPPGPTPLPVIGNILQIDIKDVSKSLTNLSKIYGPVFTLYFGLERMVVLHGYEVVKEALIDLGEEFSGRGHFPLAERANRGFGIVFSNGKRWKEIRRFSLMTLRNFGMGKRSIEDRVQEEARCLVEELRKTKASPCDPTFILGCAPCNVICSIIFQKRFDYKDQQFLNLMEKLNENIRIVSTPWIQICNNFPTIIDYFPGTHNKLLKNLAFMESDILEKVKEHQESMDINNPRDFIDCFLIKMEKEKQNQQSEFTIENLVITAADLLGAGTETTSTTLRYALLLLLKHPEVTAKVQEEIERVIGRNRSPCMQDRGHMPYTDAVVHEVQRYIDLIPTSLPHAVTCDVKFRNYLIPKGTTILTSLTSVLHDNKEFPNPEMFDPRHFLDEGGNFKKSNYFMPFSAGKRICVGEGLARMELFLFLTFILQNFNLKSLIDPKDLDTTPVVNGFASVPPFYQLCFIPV

CC(C)(CNC(=O)/C=C/c1ccc(F)cc1)CNC(=O)/C=C/c1ccc(F)cc1
EC50 [1]: 3.75 µM (active)

Cc1cccc(C)c1NC(=O)COc1ccccc1C(=O)Nc1ccc(Br)cn1
EC50 [2]: > 120 µM (not active) | EC50 [3]: > 120 µM (not active) | EC50 [4]: 94.5 µM (active)

Cc1cc(C)n(-c2cc(N3CCN(S(=O)(=O)c4ccc5ccccc5c4)CC3)ccc2[N+](=O)[O-])n1
EC50 [2]: 12 µM (active) | EC50 [3]: 26.7 µM (active) | EC50 [4]: 15.7 µM (active)

Cc1ccc2nc(-c3cccc(Br)c3)cc(C(=O)NCC3CCCO3)c2c1 (stereo not drawn)
EC50 [5]: > 195 µM (not active)

COC(=O)c1sccc1NC(=O)c1cc(-c2ccc(C)cc2C)nc2ccccc12
AC50 (Cytochrome P450 2C19): 3.55 µM (inconclusive)

COc1ccc(SCCc2ccncc2)cc1
EC50 [6]: 1.1 µM (active) | EC50 [7]: > 60 µM (not active)

COc1ccc(NC(=O)CCc2nnc3ccc(NCc4ccc5c(c4)OCO5)nn23)cc1
EC50 [1]: > 260 µM (inactive)

Cc1cccc2c1NC(C)CC2C (stereo not drawn)
EC50 [6]: 4.83 µM (active) | EC50 [7]: > 30 µM (not active)

CN1CCC(N(C)S(=O)(=O)c2ccc(C(C)(C)C)cc2)CC1
EC50 [6]: 0.249 µM (active) | EC50 [7]: 35.5 µM (active)

CCCN(CCC)S(=O)(=O)c1ccc(C(=O)Nc2nnc(COC)o2)cc1
EC50 [8]: 5.99 µM (active) | EC50 (Streptococcus): 4.59 µM (active)

COc1ccc(C(C(=O)NC2CCCC2)N(C(=O)c2snc(-c3ccc(F)cc3)c2N)c2ccc(OC)cc2)cc1 (stereo not drawn)
EC50 [6]: 1.59 µM (active) | EC50 [7]: > 60 µM (not active)

COc1ccc(C(=N)NOC(=O)c2ccc3c(c2)OCO3)cc1OC
EC50 [6]: 2.5 µM (active) | EC50 [7]: 27 µM (active)

CN1Cc2sc(NC(=S)NC(=O)c3ccccc3)c(C#N)c2CC1(C)C
EC50 [5]: 13.9 µM (active)

O=C(CN1CCN(C(c2ccccc2)c2ccccc2)CC1)N1CCOCC1
EC50 [5]: > 195 µM (not active)

CC(Nc1nc(-c2ccncc2)nc2ccccc12)c1ccccc1 (stereo not drawn)
EC50 [6]: 0.596 µM (active) | EC50 [7]: 4.4 µM (active)

Cc1c(Cl)cccc1N=C(S)N(Cc1cccnc1)Cc1ccccc1Cl
EC50 [6]: 0.516 µM (active) | EC50 [7]: > 60 µM (not active)

O=C(CN1CC(c2ccccc2)CC1=O)NCc1ccc(F)cc1 (stereo not drawn)
EC50 [5]: > 195 µM (not active)

Cc1cccc(CS(=O)(=O)Cc2ccc(C(=O)NCc3cccs3)o2)c1
EC50 [5]: > 195 µM (not active)

CCOC(=O)Cc1csc(NC(=O)Nc2cccs2)n1
EC50 [5]: > 195 µM (not active)

COC(=O)C1=C(Nc2ccc(C)cc2)C=C(C)C(C(=O)OC)C1c1cccc(OC)c1 (stereo not drawn)
EC50 [6]: 2.26 µM (active) | EC50 [7]: 6.59 µM (active)

O=C(NCCCN1CCOCC1)c1ccc([N+](=O)[O-])cc1[N+](=O)[O-]
EC50 [6]: 0.582 µM (active) | EC50 [7]: > 30 µM (not active)

CCc1ccc(C(=O)COC(=O)CNC(=O)c2cccs2)cc1
EC50 [5]: > 195 µM (not active)

Cc1ccc(-n2nc3c(=O)n(CCCC(=O)NCc4ccc(Cl)cc4)nc(C)c3c2C)cc1
EC50 [2]: 0.94 µM (active) | EC50 [3]: > 120 µM (not active) | EC50 [4]: 19.5 µM (active)

CCN(CC)S(=O)(=O)N1CCC(C(=O)N2CCC3(CC2)OCCO3)CC1
EC50 [2]: > 120 µM (not active) | EC50 [3]: 17.6 µM (active) | EC50 [4]: > 120 µM (not active)

CN(CCc1ccccc1)C(=O)c1cc(COc2cccc(C(F)(F)F)c2)on1
EC50 [1]: > 260 µM (inactive)

C=CCC(NCc1ccco1)c1ccc(OC)c(OC)c1 (stereo not drawn)
EC50 [1]: > 260 µM (inactive)

O=C1NC(=O)N(c2ccccc2F)C(=O)/C1=C/NCCC1=CCCCC1
EC50 [1]: > 260 µM (inactive)

COc1ccc(-n2c(C)c(C)c3c(N)ncnc32)cc1
EC50 [5]: 37.9 µM (active)

Cc1ccc(S(=O)(=O)NCCOc2nc(N3CCOCC3)nc(N3CCOCC3)n2)cc1
EC50 [1]: > 260 µM (inactive)

CCOc1ccc(C2=Nn3c(nnc3-c3cccnc3)SC2)cc1
EC50 [2]: 16 µM (active) | EC50 [3]: > 120 µM (not active) | EC50 [4]: 37.8 µM (active)

N#Cc1ccccc1Cn1cc(C(=O)c2ccccc2F)c2ccccc21
EC50 [2]: 54.6 µM (active) | EC50 [3]: > 120 µM (not active) | EC50 [4]: > 120 µM (not active)
